Values quoted from earlier work as cited in patent US8338383B1, “Use of immunomodulators for the treatment of cancer” (priority 2012, dated 2012).

Tested on: patients with advanced pancreatic cancer
Settings: survival from study enrollment to death from any cause

Nc1ccn([C@@H]2O[C@H](CO)[C@@H](O)C2(F)F)c(=O)n1 [gemcitabine, Gemcitabine]
increased median survival versus 5-FU: 1.5 months | median Overall Survival: 5.7 months

O=c1[nH]cc(F)c(=O)[nH]1 [5-FU, 5-fluorouracil]
median Overall Survival: 4.2 months
